# Data taken from patent US5641758A, “Cytarabine derivatives, the preparation and use thereof” (priority 1994, dated 1997).
# Like-named read-outs stand apart in the source and are kept apart here.
# What was measured:
# HL-60 [1] = assay: Human tumor xenograft in nude mice, i.p., leukemia HL-60; type: in vivo; settings: HL-60, acute promyelocytic leukemia; i.p. 150 mg/kg/day (MTD), days 1,4,7,10
# Procedure: (§1) 6 to 8 week old nude mice of NMRI genetic background were used for all experiments. Tumors were implanted subcutaneously in both flanks of athymic nude mice. Treatment was started as soon as the tumors reached a median diameter of 6 mm, depending on the doubling time between day 12-42. Mice were randomly assigned to treatment groups and control group (5-6 mice per group bearing 6-12 evaluable tumors).
# (§2) Tumor size was measured by two-dimensional measurement with calipers. The antitumor effect was evaluated following maximal tumor regression, in non-regressing tumors after 3-4 weeks. Relative tumor volume (RTV) values were calculated for each single tumor by dividing the tumor volume day×by the tumor volume day 0 at the time of randomization. Median RTV values were used for further evaluation.
# (§3) Drug therapy was intraperitoneal on day 1,4,7 and 10. The dose of 150 mg/kg/day was considered to be the maximal tolerated dose resulting in a lethality of 14% in tumor-bearing nude mice.
# (§4) Tumor growth inhibition was calculated according to relative tumor volume of control minus test divided by the control group. Furthermore the specific growth delay (SGD) was calculated with regard to the tumor doubling time (DT) by doubling time test group minus control divided by the doubling time of the control group.
# L1210 leukemia [2] = assay: Intravenous treatment of L1210 leukemia in BDF1 mice; type: in vivo, murine (female BDF1 mice); settings: i.v.; for T/C, increase of lifespan: including 60d survivors; for Survivors 60 Days: survivors/group
# HL-60 [3] = assay: MTT dye reduction cytotoxicity assay, HL-60; type: cell-based; settings: Homo sapiens
# U937 = assay: MTT dye reduction cytotoxicity assay, U937; type: cell-based; settings: Homo sapiens, U-937
# LXFS 605 = assay: Human tumor xenograft in nude mice, i.p., lung carcinoma LXFS 605; type: in vivo; settings: LXFS 605, small cell; i.p. 150 mg/kg/day (MTD), days 1,4,7,10
# Procedure: as §1, §2, §3, §4
# PC3M = assay: Human tumor xenograft in nude mice, i.p., prostate carcinoma PC3M; type: in vivo; settings: adenocarcinoma, i.p. 150 mg/kg/day (MTD), days 1,4,7,10
# Procedure: as §1, §2, §3, §4
# LXFL 529 = assay: Human tumor xenograft in nude mice, i.p., lung carcinoma LXFL 529; type: in vivo; settings: LXFL 529, large cell; i.p. 150 mg/kg/day (MTD), days 1,4,7,10
# Procedure: as §1, §2, §3, §4
# K562 = assay: MTT dye reduction cytotoxicity assay, K562; type: cell-based; settings: Homo sapiens
# CCRF-CEM (dcK)^- = assay: MTT dye reduction cytotoxicity assay, CCRF-CEM deoxycytidine kinase deficient cell line; type: cell-based; settings: Homo sapiens
# L1210 leukemia [4] = assay: Oral treatment of L1210 leukemia in BDF1 mice, therapy on days 1-5; type: in vivo, murine (female BDF1 mice); settings: for T/C, increase of lifespan: including 60 day survivors; for Survivors 60 Days: survivors/group
# Procedure: The anti-tumor activity of the liposomal drug preparations was evaluated with the murine L1210 leukemia model in female BDF1 mice (Rubas et al., Int. J. Cancer, 37, 149-154 (1986)). The L1210 cells (1×10^5) from donor ascites were injected i.v.
# Control groups of 5-6 mice received ara-C dissolved in phosphate buffer (PB). The animals were observed daily until death or 60 days. Increase in lifespan of the treated animals (T) was compared to that of the untreated controls (C), expressed as T/C in percentages. Animals surviving 60 days were included in the calculation and considered as being cured.
# [5] = Toxicity (lethality, maximal tolerated dose) in tumor-bearing nude mice, i.p.; settings: mouse, in vivo, ip
# Procedure: as §1
# Drug therapy was intraperitoneal on day 1,4,7 and 10.
# Toxicity was assessed by lethality within 10 days after last therapy and body weight loss. The body weight of the nude mice was measured weekly, for rapidly growing tumor lines, measurements were done twice weekly.
# OVXF 1023 = assay: Human tumor xenograft in nude mice, i.p., ovary carcinoma OVXF 1023; type: in vivo; settings: i.p. 150 mg/kg/day (MTD), days 1,4,7,10
# Procedure: as §1, §2, §3, §4
# CCRF-CEM [6] = assay: Human tumor xenograft in nude mice, i.p., leukemia CCRF-CEM; type: in vivo; settings: acute lymphatic leukemia, i.p. 150 mg/kg/day (MTD), days 1,4,7,10
# Procedure: as §1, §2, §3, §4
# CCRF-CEM [7] = assay: MTT dye reduction cytotoxicity assay, CCRF-CEM; type: cell-based; settings: Homo sapiens
# MEXF 276 = assay: Human tumor xenograft in nude mice, i.p., melanoma MEXF 276; type: in vivo; settings: MEXF 276, amelanotic; i.p. 150 mg/kg/day (MTD), days 1,4,7,10
# Procedure: as §1, §2, §3, §4
# MAXF 401 = assay: Human tumor xenograft in nude mice, i.p., mammary carcinoma MAXF 401; type: in vivo; settings: MAXF 401, adenocarcinoma; i.p. 150 mg/kg/day (MTD), days 1,4,7,10
# Procedure: as §1, §2, §3, §4
# cytosine deaminase = settings: in the body, in words; cited from earlier work
# [8] = total dose 200 μmol/kg (49 mg/kg)
compound,measurement,setting,value
"CCCCCCCCCCCCCCCCCCNc1ccn([C@@H]2O[C@H](CO)[C@@H](O)[C@@H]2O)c(=O)n1 [NOAC, 4-(1-octadecylamino)-1-β-D-arabinofuranosyl-2(1H)-pyrimidinone]",Growth inhibition,HL-60 [1],97%
same,effect compared with ara-C and N^4-hexadecyl-ara-C,"L1210 leukemia [2]; results of Table 2, in words","superiority of NOAC over the prior art compounds, ara-C and N^4 -hexadecyl-ara-C"
same,"Survival Time, Mean ± SD",L1210 leukemia [2]; total dose 50 μmol/kg,52.1 ± 19.2 days
same,"T/C, increase of lifespan",L1210 leukemia [2]; total dose 50 μmol/kg,744%
same,Survivors 60 Days,L1210 leukemia [2]; total dose 50 μmol/kg,5/6
same,"Survival Time, Mean ± SD",L1210 leukemia [2]; total dose 100 μmol/kg,60 days
same,"Survival Time, Range",L1210 leukemia [2]; total dose 100 μmol/kg,> 60 days
same,"T/C, increase of lifespan",L1210 leukemia [2]; total dose 100 μmol/kg,857%
same,Survivors 60 Days,L1210 leukemia [2]; total dose 100 μmol/kg,6/6
same,IC50,"HL-60 [3]; HL-60, MTT assay, read-out: IC50",< 50 µM
same,IC50,"U937; U937, MTT assay, read-out: IC50",< 100 µM
same,Growth inhibition,LXFS 605,73%
same,Growth inhibition,PC3M,83%
same,Growth inhibition,LXFL 529,79%
same,IC50,"K562; K562, MTT assay, read-out: IC50",< 200 µM
same,IC50,CCRF-CEM (dcK)^-,< 140 µM
same,"Survival Time, Mean ± SD",L1210 leukemia [4]; total dose 1 mmol/kg,54 ± 15 days
same,"T/C, increase of lifespan",L1210 leukemia [4]; total dose 1 mmol/kg,673%
same,Survivors 60 Days,L1210 leukemia [4]; total dose 1 mmol/kg,5/6
same,"Survival Time, Mean ± SD",L1210 leukemia [4]; total dose 2 mmol/kg,55 ± 12 days
same,"T/C, increase of lifespan",L1210 leukemia [4]; total dose 2 mmol/kg,689%
same,Survivors 60 Days,L1210 leukemia [4]; total dose 2 mmol/kg,5/6
same,MTD,"[5]; days 1,4,7 and 10, tumor-bearing nude mice",150 mg/kg/day
same,mortality,"[5]; 150 mg/kg/day i.p., tumor-bearing nude mice",14%
same,Growth inhibition,OVXF 1023,45%
same,Growth inhibition,CCRF-CEM [6],96%
same,IC50,"CCRF-CEM [7]; MTT assay, read-out: IC50",50 µM
same,Growth inhibition,MEXF 276,39%
same,Growth inhibition,MAXF 401,85%
"CCCCCCCCCCCCCCCCNc1ccn([C@@H]2O[C@H](CO)[C@@H](O)[C@@H]2O)c(=O)n1 [N^4 -Hexadecyl-ara-C, 4-(1-hexadecylamino)-1-β-D-arabinofuranosyl-2(1H)-pyrimidinone]","Survival Time, Mean ± SD",L1210 leukemia [2]; total dose 50 μmol/kg,10.6 days
same,"Survival Time, Range",L1210 leukemia [2]; total dose 50 μmol/kg,10 to 11 days
same,Survivors 60 Days,L1210 leukemia [2]; total dose 50 μmol/kg,0/5
same,"Survival Time, Mean ± SD",L1210 leukemia [2]; total dose 100 μmol/kg,12.0 days
same,"Survival Time, Range",L1210 leukemia [2]; total dose 100 μmol/kg,11 to 16 days
same,Survivors 60 Days,L1210 leukemia [2]; total dose 100 μmol/kg,0/5
"Nc1ccn([C@@H]2O[C@H](CO)[C@@H](O)[C@@H]2O)c(=O)n1 [ara-C, 4-amino-1-β-D-arabinofuranosyl-2(1H)-pyrimidinone, reference compound]","Survival Time, Mean ± SD",L1210 leukemia [2]; [8],19.8 ± 19.7 days
same,"T/C, increase of lifespan",L1210 leukemia [2]; [8],282%
same,Survivors 60 Days,L1210 leukemia [2]; [8],1/6
same,IC50,HL-60 [3]; HL-60,> 200 µM
same,IC50,U937,> 200 µM
same,deamination by cytosine deaminase,cytosine deaminase,rapidly undergoes deamination
same,IC50,K562; K562,> 400 µM
same,"Survival Time, Mean ± SD",L1210 leukemia [4]; total dose 2 mmol/kg,13 ± 17 days
same,"Survival Time, Range",L1210 leukemia [4]; total dose 2 mmol/kg,10 to 52 days
same,"T/C, increase of lifespan",L1210 leukemia [4]; total dose 2 mmol/kg,221%
same,Survivors 60 Days,L1210 leukemia [4]; total dose 2 mmol/kg,0/6
same,IC50,CCRF-CEM [7],< 1 µM
